Numbered stars: 1 amine (or outer) side, 2 acyl side, 3 side chain; on linkers, the order of the positions; unused ones are H or OH. Bridge positions count the residues as written; N and C are the ends. Square brackets hold non-standard residues; d marks the D form. Peptide text beside a SMILES is read from it. I, II: the chains in the order shown. * marks the point of attachment. ξ: configuration not given here. DOTA = O=C(O)CN1CCN(CC(=O)O)CCN(CC(=O)*)CCN(CC(=O)O)CC1; Phe(4-CF3) = N[C@@H](Cc1ccc(C(F)(F)F)cc1)C(=O)O; Trp(5-F) = N[C@@H](Cc1c[nH]c2ccc(F)cc12)C(=O)O; Trp(7-aza) = N[C@@H](Cc1c[nH]c2ncccc12)C(=O)O; X5 = O=C([C@H](CC1C=NC2N=CC=CC12)N[*:1])[*:2]; Pro(trans-4-F) = O=C(O)[C@@H]1C[C@@H](F)CN1; X6 = C[C@@H]1CN([*:1])[C@@H]1C(=O)[*:2]; Phe(4-F) = N[C@@H](Cc1ccc(F)cc1)C(=O)O; 2Nal = N[C@@H](Cc1ccc2ccccc2c1)C(=O)O; Cha = N[C@@H](CC1CCCCC1)C(=O)O; NMeL = CN[C@@H](CC(C)C)C(=O)O; Cba = N[C@@H](CC1CCC1)C(=O)O; Tle = CC(C)(C)[C@H](N)C(=O)O; 4Amb = NCc1ccc(C(=O)O)cc1; Nle = CCCC[C@H](N)C(=O)O; Octanoyl = CCCCCCCC(=O)*; Orn = NCCC[C@H](N)C(=O)O; Aze = O=C(O)[C@@H]1CCN1; Dab = NCC[C@H](N)C(=O)O; ξK = NCCCCC(N)C(=O)O

The target in this assay is T1, human DLL3 (Homo sapiens, UniProt Q9NYJ7).
T1 sequence (Q9NYJ7 27-618): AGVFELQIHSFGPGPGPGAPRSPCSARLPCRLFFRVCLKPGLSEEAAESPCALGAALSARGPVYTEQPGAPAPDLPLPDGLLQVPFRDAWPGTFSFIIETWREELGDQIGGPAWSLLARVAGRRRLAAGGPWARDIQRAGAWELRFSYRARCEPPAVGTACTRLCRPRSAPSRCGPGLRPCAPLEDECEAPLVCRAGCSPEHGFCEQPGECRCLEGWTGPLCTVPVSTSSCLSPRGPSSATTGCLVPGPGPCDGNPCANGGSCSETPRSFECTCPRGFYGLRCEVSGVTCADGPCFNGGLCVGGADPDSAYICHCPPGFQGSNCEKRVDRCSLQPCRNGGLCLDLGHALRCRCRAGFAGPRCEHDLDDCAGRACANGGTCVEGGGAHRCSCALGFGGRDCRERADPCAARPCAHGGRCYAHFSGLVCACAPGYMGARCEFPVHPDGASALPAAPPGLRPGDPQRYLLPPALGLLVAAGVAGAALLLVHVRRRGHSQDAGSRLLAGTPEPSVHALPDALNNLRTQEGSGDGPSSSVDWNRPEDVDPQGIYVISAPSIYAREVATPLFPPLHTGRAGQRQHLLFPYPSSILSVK
As to the kind of experiment: Affinity determination by Surface Plasmon Resonance (SPR). The format is binding. The note with it: 25° C., biotinylated human DLL3 immobilized on streptavidin sensor chip, 1:1 binding model; read-out: SPR KD. In outline:
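Kinetic and affinity constants were derived by fitting sensorgrams to a 1:1 binding model. Graded compound concentrations flowed at 100 μL/minute in 20 mM phosphate running buffer with 2% DMSO over streptavidin-immobilized biotinylated human DLL3, reference-subtracted.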
What is called Kd is the equilibrium constant for the complex coming apart. As for `CCCC[C@H](NC(=O)[C@@H](NC(=O)[C@H](Cc1c[nH]c2ccc(F)cc12)NC(C)=O)[C@@H](C)O)C(=O)N[C@H]1CSSC[C@@H](C(=O)N[C@@H](Cc2c[nH]c3ncccc23)C(=O)N2CC[C@H]2C(=O)N[C@H](CCCCNC(=O)CN2CCN(CC(=O)O)CCN(CC(=O)O)CCN(CC(=O)O)CC2)C(N)=O)NC(=O)[C@H](CC(=O)O)NC(=O)[C@H](Cc2cnc[nH]2)NC(=O)[C@H](Cc2ccc(C(F)(F)F)cc2)NC(=O)[C@H](CC(N)=O)NC(=O)[C@H](CC(N)=O)NC1=O` [compound 140, Ac-(5Fluoro-W)-T-(Nle)-C(3)-N-N-(4CF3-F)-H-D-C(3)-(7Aza-W)-(Aze)-[D-Lys(DOTA)]-NH2] (Ac-[Trp(5-F)]T[Nle]CNN[Phe(4-CF3)]HDC[Trp(7-aza)][Aze][dK](DOTA)-NH2; disulfide 4-10), the Kd fell in the range of 0.01 to 0.1 µM. Consider `CC(=O)N[C@@H](Cc1c[nH]c2ccc(F)cc12)C(=O)N[C@H](C(=O)N[C@@H](CC1CCCCC1)C(=O)N[C@H]1CSSC[C@@H](C(=O)N[C@@H](Cc2c[nH]c3ncccc23)C(=O)N2CC[C@H]2C(=O)N[C@H](CCCCNC(=O)CN2CCN(CC(=O)O)CCN(CC(=O)O)CCN(CC(=O)O)CC2)C(N)=O)NC(=O)[C@H](CC(=O)O)NC(=O)[C@H](Cc2cnc[nH]2)NC(=O)[C@H](Cc2ccc(C(F)(F)F)cc2)NC(=O)[C@H](CC(N)=O)NC(=O)[C@H](CC(N)=O)NC1=O)[C@@H](C)O` [compound 141, Ac-(5Fluoro-W)-T-(CHA)-C(3)-N-N-(4CF3-F)-H-D-C(3)-(7Aza-W)-(Aze)-[D-Lys(DOTA)]-NH2] (Ac-[Trp(5-F)]T[Cha]CNN[Phe(4-CF3)]HDC[Trp(7-aza)][Aze][dK](DOTA)-NH2; disulfide 4-10), for which the Kd lay in the range of 0.001 to 0.01 µM. As for `CCCCCCCC(=O)NCC[C@@H]1NC(=O)[C@H](Cc2c[nH]c3ccccc23)NC(=O)[C@H](CC(N)=O)NC(=O)[C@H](CC(N)=O)NC(=O)[C@@H](NC(=O)[C@@H](NC(=O)[C@@H](NC(=O)[C@H](Cc2c[nH]c3ccccc23)NC(C)=O)[C@@H](C)O)[C@@H](C)CC)CSSC[C@@H](C(=O)N[C@@H](Cc2c[nH]c3ccccc23)C(=O)N2CCC[C@H]2C(=O)N[C@H](CCCCNC(=O)CN2CCN(CC(=O)O)CCN(CC(=O)O)CCN(CC(=O)O)CC2)C(N)=O)NC(=O)[C@H](CC(=O)O)NC1=O` [compound 93, Ac-W-T-I-C(3)-N-N-W-(DAB-4-NHCOC7H15)-D-C(3)-W-P-[D-Lys(DOTA)]-NH2] (Ac-WTICNNW[Dab](Octanoyl)DCWP[dK](DOTA)-NH2; disulfide 4-10), the Kd was in the range of 0.01 to 0.1 µM. For `CC[C@H](C)[C@H](NC(=O)[C@@H](NC(=O)[C@H](Cc1c[nH]c2ccccc12)NC(C)=O)[C@@H](C)O)C(=O)N[C@H]1CSSC[C@@H](C(=O)N[C@@H](Cc2c[nH]c3ccccc23)C(=O)N2CCC[C@H]2C(=O)N[C@H](CCCCNC(=O)CNC(=O)CNC(=O)[C@H](CO)NC(=O)CNC(=O)CNC(=O)[C@H](CO)NC(=O)CN2CCN(CC(=O)O)CCN(CC(=O)O)CCN(CC(=O)O)CC2)C(N)=O)NC(=O)[C@H](CC(=O)O)NC(=O)[C@H](Cc2c[nH]cn2)NC(=O)[C@H](Cc2ccc3ccccc3c2)NC(=O)[C@H](CC(N)=O)NC(=O)[C@H](CC(N)=O)NC1=O` [compound 365, Ac-W-T-I-C(3)-N-N-(2Nal)-H-D-C(3)-W-P-[D-Lys(G-G-S-G-G-S-DOTA)]-NH2] (I: Ac-WTICNN[2Nal]HDCWP[dK]-NH2 / II: {DOTA}-SGGSGG; disulfide I:4-I:10; amide I:13-II:C), the Kd was less than 0.001 µM. With `CC(=O)N[C@@H](Cc1c[nH]c2ccc(F)cc12)C(=O)N[C@H](C(=O)N[C@@H](CC1CCC1)C(=O)N[C@H]1CSSC[C@@H](C(=O)N[C@@H](Cc2c[nH]c3ncccc23)C(=O)N2C[C@H](F)C[C@H]2C(=O)N[C@H](CCCCNC(=O)CN2CCN(CC(=O)O)CCN(CC(=O)O)CCN(CC(=O)O)CC2)C(N)=O)NC(=O)[C@H](CC(=O)O)NC(=O)[C@H](Cc2cnc[nH]2)NC(=O)[C@H](Cc2ccc(C(F)(F)F)cc2)NC(=O)[C@H](CC(N)=O)NC(=O)[C@H](CC(N)=O)NC1=O)[C@@H](C)O` [compound 150, Ac-(5Fluoro-W)-T-(CBA)-C(3)-N-N-(4CF3-F)-H-D-C(3)-(7Aza-W)-(trans4Fluoro-P)-[D-Lys(DOTA)]-NH2] (Ac-[Trp(5-F)]T[Cba]CNN[Phe(4-CF3)]HDC[Trp(7-aza)][Pro(trans-4-F)][dK](DOTA)-NH2; disulfide 4-10), the Kd is 0.001 to 0.01 µM. Regarding `CCCC[C@H](NC(=O)[C@@H](NC(=O)[C@H](Cc1c[nH]c2ccc(F)cc12)NC(C)=O)[C@@H](C)O)C(=O)N[C@H]1CSSC[C@@H](C(=O)N[C@@H](Cc2c[nH]c3ncccc23)C(=O)N2CC[C@H]2C(=O)NC(CCCCNC(=O)CN2CCN(CC(=O)O)CCN(CC(=O)O)CCN(CC(=O)O)CC2)C(N)=O)NC(=O)[C@H](CC(=O)O)NC(=O)[C@H](Cc2cnc[nH]2)NC(=O)[C@H](Cc2ccc(F)cc2)NC(=O)[C@H](CC(N)=O)NC(=O)[C@H](CC(N)=O)NC1=O` (stereo partly drawn) [compound 124, Ac-(5Fluoro-W)-T-(Nle)-C(3)-N-N-(4Fluoro-F)-H-D-C(3)-(7Aza-W)-(Aze)-[D-Lys(DOTA)]-NH2] (Ac-[Trp(5-F)]T[Nle]CNN[Phe(4-F)]HDC[Trp(7-aza)][Aze][ξK](DOTA)-NH2; disulfide 4-10), the Kd was 0.01 to 0.1 µM.

`CC(=O)N[C@@H](Cc1c[nH]c2ccc(F)cc12)C(=O)N[C@H](C(=O)N[C@H](C(=O)N[C@H]1CSSC[C@@H](C(=O)N[C@@H](CC2C=NC3N=CC=CC23)C(=O)N2C[C@H](F)C[C@H]2C(=O)N[C@H](CCCCNC(=O)CN2CCN(CC(=O)O)CCN(CC(=O)O)CCN(CC(=O)O)CC2)C(N)=O)NC(=O)[C@H](CC(=O)O)NC(=O)[C@H](Cc2cnc[nH]2)NC(=O)[C@H](Cc2ccc(C(F)(F)F)cc2)NC(=O)[C@H](CC(N)=O)NC(=O)[C@H](CC(N)=O)NC1=O)C(C)(C)C)[C@@H](C)O` (stereo partly drawn) [compound 145, Ac-(5Fluoro-W)-T-(Tbg)-C(3)-N-N-(4CF3-F)-H-D-C(3)-(7Aza-W)-(trans4Fluoro-P)-[D-Lys(DOTA)]-NH2] (Ac-[Trp(5-F)]T[Tle]CNN[Phe(4-CF3)]HDC[X5][Pro(trans-4-F)][dK](DOTA)-NH2; disulfide 4-10): the Kd fell in the range of 0.001 to 0.01 µM. Under `CC[C@H](C)[C@H](NC(=O)[C@@H](NC(=O)[C@H](Cc1c[nH]c2ccccc12)NC(C)=O)[C@@H](C)O)C(=O)N[C@H]1CSSC[C@@H](C(=O)N[C@@H](Cc2c[nH]c3ccccc23)C(=O)N(C)[C@@H](CC(C)C)C(=O)N[C@H](CCCCNC(=O)CN2CCN(CC(=O)O)CCN(CC(=O)O)CCN(CC(=O)O)CC2)C(N)=O)NC(=O)[C@H](CC(=O)O)NC(=O)[C@H](Cc2cnc[nH]2)NC(=O)[C@H](Cc2c[nH]c3ccccc23)NC(=O)[C@H](CC(N)=O)NC(=O)[C@H](CC(N)=O)NC1=O` [compound 345, Ac-W-T-I-C(3)-N-N-W-H-D-C(3)-W-NmeL-[D-Lys(DOTA)]-NH2] (Ac-WTICNNWHDCW[NMeL][dK](DOTA)-NH2; disulfide 4-10) stands 0.001 to 0.01 µM; under `CC[C@H](C)[C@H](NC(=O)[C@@H](NC(=O)[C@H](Cc1c[nH]c2ccccc12)NC(C)=O)[C@@H](C)O)C(=O)N[C@H]1CSSC[C@@H](C(=O)N[C@@H](Cc2c[nH]c3ccccc23)C(=O)N2C[C@@H](C)[C@H]2C(=O)N[C@H](CCCCNC(=O)CN2CCN(CC(=O)O)CCN(CC(=O)O)CCN(CC(=O)O)CC2)C(N)=O)NC(=O)[C@H](CC(=O)O)NC(=O)[C@H](Cc2c[nH]cn2)NC(=O)[C@H](Cc2ccc3ccccc3c2)NC(=O)[C@H](CC(N)=O)NC(=O)[C@H](CC(N)=O)NC1=O` [compound 359, Ac-W-T-I-C(3)-N-N-(2Nal)-H-D-C(3)-W-R-3Me-Aze-[D-Lys(DOTA)]-NH2] (Ac-WTICNN[2Nal]HDCW[X6][dK](DOTA)-NH2; disulfide 4-10), less than 0.001 µM.

Turning to `CC[C@H](C)[C@H](NC(=O)[C@@H](NC(=O)[C@H](Cc1c[nH]c2ccccc12)NC(C)=O)[C@@H](C)O)C(=O)N[C@H]1CSSC[C@@H](C(=O)N[C@@H](Cc2c[nH]c3ccccc23)C(=O)N2CCC[C@H]2C(=O)NCc2ccc(C(=O)N[C@H](CCCCNC(=O)CN3CCN(CC(=O)O)CCN(CC(=O)O)CCN(CC(=O)O)CC3)C(N)=O)cc2)NC(=O)[C@H](CC(=O)O)NC(=O)[C@H](Cc2c[nH]cn2)NC(=O)[C@H](Cc2ccc3ccccc3c2)NC(=O)[C@H](CC(N)=O)NC(=O)[C@H](CC(N)=O)NC1=O` [compound 374, Ac-W-T-I-C(3)-N-N-(2Nal)-H-D-C(3)-W-P-(AMBX)-[D-Lys(DOTA)]-NH2] (Ac-WTICNN[2Nal]HDCWP[4Amb][dK](DOTA)-NH2; disulfide 4-10), the Kd was less than 0.001 µM.

`CC[C@H](C)[C@H](NC(=O)[C@@H](NC(=O)[C@H](Cc1c[nH]c2ccccc12)NC(C)=O)[C@@H](C)O)C(=O)N[C@H]1CSSC[C@@H](C(=O)N[C@@H](Cc2c[nH]c3ccccc23)C(=O)N2CCC[C@H]2C(=O)N[C@H](CCCCNC(=O)CN2CCN(CC(=O)O)CCN(CC(=O)O)CCN(CC(=O)O)CC2)C(=O)O)NC(=O)[C@H](CC(=O)O)NC(=O)[C@H](CCCN)NC(=O)[C@H](Cc2ccc3ccccc3c2)NC(=O)[C@H](CC(N)=O)NC(=O)[C@H](CC(N)=O)NC1=O` [compound 376, Ac-W-T-I-C(3)-N-N-(2Nal)-Orn-D-C(3)-W-P-[D-Lys(DOTA)]-NH2] (Ac-WTICNN[2Nal][Orn]DCWP[dK](DOTA)-OH; disulfide 4-10): the Kd was less than 0.001 µM.

These data come from patent publication US20250011368A1, “DLL3 TARGETING PEPTIDES AND CONSTRUCTS THEREOF” (MARIANA ONCOLOGY INC., priority 2023, published 2025).
